Laboratory results taken from the supplement of paper PMC10307832.

Tests used:
Assay in all cases: relative viability (nuclei count vs DMSO), 5 days (fraction); higher = more cells survive
NCI-H1650 = tested on: NCI-H1650
Summary of the method: (§1)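 Lung cancer cell lines, seeded in 1536-well plates, were treated the following day by pin tool with a single drug or with five library-drug doses (not always all listed) in √10 steps on top of a fixed anchor-drug dose. Cells were fixed and nuclei stained in one step after 5 days, and nuclei were counted. Relative viability is the nuclei count for treated wells divided by that for vehicle wells, reported as medians of duplicate plates.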

EKVX = tested on: EKVX
Summary of the method: as §1

BEN = tested on: BEN
Summary of the method: as §1

HARA = tested on: HARA
Summary of the method: as §1

NCI-H838 = tested on: NCI-H838
Summary of the method: as §1

A-427 = tested on: A-427
Summary of the method: as §1

NCI-H1792 = tested on: NCI-H1792
Summary of the method: as §1

NCI-H650 = tested on: NCI-H650
Summary of the method: as §1

HCC-44 = tested on: HCC-44
Summary of the method: as §1

NCI-H596 = tested on: NCI-H596
Summary of the method: as §1

SK-MES-1 = tested on: SK-MES-1
Summary of the method: as §1

NCI-H358 = tested on: NCI-H358
Summary of the method: as §1

NCI-H1437 = tested on: NCI-H1437
Summary of the method: as §1

NCI-H23 = tested on: NCI-H23
Summary of the method: as §1

COR-L23 = tested on: COR-L23
Summary of the method: as §1

HCC-15 = tested on: HCC-15
Summary of the method: as §1

201T = tested on: 201T
Summary of the method: as §1

NCI-H1975 = tested on: NCI-H1975
Summary of the method: as §1

HCC-827 = tested on: HCC-827
Summary of the method: as §1

SMILES: Nc1ccn([C@@H]2O[C@H](CO)[C@@H](O)[C@@H]2O)c(=O)n1 [Cytarabine] + CS(=O)(=O)CCNCc1ccc(-c2ccc3ncnc(Nc4ccc(OCc5cccc(F)c5)c(Cl)c4)c3c2)o1 [Lapatinib] (partner 2 µM)
- relative viability (NCI-H1650; first compound 0.005 µM): 0.807
- relative viability (NCI-H1650; first compound 0.01581 µM): 0.604
- relative viability (NCI-H1650; first compound 0.05 µM): 0.317
- relative viability (NCI-H1650; first compound 0.1581 µM): 0.247
- relative viability (NCI-H1650; first compound 0.5 µM): 0.155
- relative viability (EKVX; first compound 0.005 µM): 0.225
- relative viability (EKVX; first compound 0.01581 µM): 0.18
- relative viability (EKVX; first compound 0.05 µM): 0.153
- relative viability (EKVX; first compound 0.1581 µM): 0.138
- relative viability (EKVX; first compound 0.5 µM): 0.112
- relative viability (BEN; first compound 0.005 µM): 0.606
- relative viability (BEN; first compound 0.01581 µM): 0.549
- relative viability (BEN; first compound 0.05 µM): 0.414
- relative viability (BEN; first compound 0.1581 µM): 0.333
- relative viability (BEN; first compound 0.5 µM): 0.256
- relative viability (HARA; first compound 0.005 µM): 0.692
- relative viability (HARA; first compound 0.01581 µM): 0.51
- relative viability (HARA; first compound 0.05 µM): 0.365
- relative viability (HARA; first compound 0.1581 µM): 0.189
- relative viability (HARA; first compound 0.5 µM): 0.132
- relative viability (NCI-H838; first compound 0.005 µM): 0.926
- relative viability (NCI-H838; first compound 0.01581 µM): 0.937
- relative viability (NCI-H838; first compound 0.05 µM): 0.767
- relative viability (NCI-H838; first compound 0.1581 µM): 0.288
- relative viability (NCI-H838; first compound 0.5 µM): 0.213
- relative viability (A-427; first compound 0.005 µM): 0.93
- relative viability (A-427; first compound 0.01581 µM): 0.565
- relative viability (A-427; first compound 0.05 µM): 0.274
- relative viability (A-427; first compound 0.1581 µM): 0.184
- relative viability (A-427; first compound 0.5 µM): 0.183
- relative viability (NCI-H1792; first compound 0.005 µM): 0.878
- relative viability (NCI-H1792; first compound 0.01581 µM): 0.874
- relative viability (NCI-H1792; first compound 0.05 µM): 0.366
- relative viability (NCI-H1792; first compound 0.1581 µM): 0.548
- relative viability (NCI-H1792; first compound 0.5 µM): 0.47
- relative viability (NCI-H650; first compound 0.005 µM): 0.735
- relative viability (NCI-H650; first compound 0.01581 µM): 0.535
- relative viability (NCI-H650; first compound 0.05 µM): 0.363
- relative viability (NCI-H650; first compound 0.1581 µM): 0.202
- relative viability (NCI-H650; first compound 0.5 µM): 0.195
- relative viability (HCC-44; first compound 0.005 µM): 0.93
- relative viability (HCC-44; first compound 0.01581 µM): 0.935
- relative viability (HCC-44; first compound 0.05 µM): 0.984
- relative viability (HCC-44; first compound 0.1581 µM): 0.532
- relative viability (HCC-44; first compound 0.5 µM): 0.431
- relative viability (NCI-H596; first compound 0.005 µM): 1.03
- relative viability (NCI-H596; first compound 0.01581 µM): 0.903
- relative viability (NCI-H596; first compound 0.05 µM): 0.785
- relative viability (NCI-H596; first compound 0.1581 µM): 0.746
- relative viability (NCI-H596; first compound 0.5 µM): 0.609
- relative viability (SK-MES-1; first compound 0.005 µM): 0.416
- relative viability (SK-MES-1; first compound 0.01581 µM): 0.396
- relative viability (SK-MES-1; first compound 0.05 µM): 0.328
- relative viability (SK-MES-1; first compound 0.1581 µM): 0.228
- relative viability (SK-MES-1; first compound 0.5 µM): 0.196
- relative viability (NCI-H358; first compound 0.005 µM): 0.471
- relative viability (NCI-H358; first compound 0.01581 µM): 0.332
- relative viability (NCI-H358; first compound 0.05 µM): 0.364
- relative viability (NCI-H358; first compound 0.1581 µM): 0.199
- relative viability (NCI-H358; first compound 0.5 µM): 0.176
- relative viability (NCI-H1437; first compound 0.005 µM): 0.548
- relative viability (NCI-H1437; first compound 0.01581 µM): 0.453
- relative viability (NCI-H1437; first compound 0.05 µM): 0.378
- relative viability (NCI-H1437; first compound 0.1581 µM): 0.177
- relative viability (NCI-H1437; first compound 0.5 µM): 0.147
- relative viability (NCI-H23; first compound 0.005 µM): 0.974
- relative viability (NCI-H23; first compound 0.01581 µM): 0.636
- relative viability (NCI-H23; first compound 0.05 µM): 0.734
- relative viability (NCI-H23; first compound 0.1581 µM): 0.203
- relative viability (NCI-H23; first compound 0.5 µM): 0.165
- relative viability (COR-L23; first compound 0.005 µM): 0.892
- relative viability (COR-L23; first compound 0.01581 µM): 0.668
- relative viability (COR-L23; first compound 0.05 µM): 0.921
- relative viability (COR-L23; first compound 0.1581 µM): 0.235
- relative viability (COR-L23; first compound 0.5 µM): 0.138
- relative viability (HCC-15; first compound 0.005 µM): 0.785
- relative viability (HCC-15; first compound 0.01581 µM): 0.887
- relative viability (HCC-15; first compound 0.05 µM): 0.693
- relative viability (HCC-15; first compound 0.1581 µM): 0.615
- relative viability (HCC-15; first compound 0.5 µM): 0.639
- relative viability (201T; first compound 0.005 µM): 1.08
- relative viability (201T; first compound 0.01581 µM): 0.997
- relative viability (201T; first compound 0.05 µM): 1.04
- relative viability (201T; first compound 0.1581 µM): 0.889
- relative viability (201T; first compound 0.5 µM): 0.919
- relative viability (NCI-H1975; first compound 0.005 µM): 0.644
- relative viability (NCI-H1975; first compound 0.01581 µM): 1.05
- relative viability (NCI-H1975; first compound 0.05 µM): 1.09
- relative viability (NCI-H1975; first compound 0.1581 µM): 0.456
- relative viability (NCI-H1975; first compound 0.5 µM): 0.372
- relative viability (HCC-827; first compound 0.005 µM): 0.192
- relative viability (HCC-827; first compound 0.01581 µM): 0.16
- relative viability (HCC-827; first compound 0.05 µM): 0.141
- relative viability (HCC-827; first compound 0.1581 µM): 0.136
- relative viability (HCC-827; first compound 0.5 µM): 0.125
